Reference: patent US20230250066A1, “HERBICIDAL CINNOLINE DERIVATIVES” (SYNGENTA CROP PROTECTION AG, priority 2020, published 2023)

Tests used:
Format in all cases: in vivo
[1] = system: Ipomoea hederacea (IPOHE); assay: Pre-emergence herbicidal test; details: 1000 g/ha, evaluated after 13 days
Setaria faberi (SETFA) [2] = assay: Pre-emergence herbicidal test; details: 1000 g/ha, evaluated after 13 days
Zea mays (ZEAMX) [3] = assay: Pre-emergence herbicidal test; details: 1000 g/ha, evaluated after 13 days
[4] = system: Abutilon theophrasti (ABUTH); assay: Pre-emergence herbicidal test; details: 1000 g/ha, evaluated after 13 days
[5] = system: Echinochloa crus-galli (ECHCG); assay: Pre-emergence herbicidal test; details: 1000 g/ha, evaluated after 13 days
[6] = system: Echinochloa crus-galli (ECHCG); assay: Post-emergence herbicidal test; details: 1000 g/ha unless otherwise stated, evaluated after 13 days
Description: (§1) Seeds of a variety of test species are sown in standard soil in pots (Amaranthus retoflexus (AMARE), Solanum nigrum (SOLNI), Setaria faberi (SETFA), Lolium perenne (LOLPE), Echinochloa crus-galli (ECHCG), Ipomoea hederacea (IPOHE), Abutilon theophrasti (ABUTH), Zea mays (ZEAMX)). After 8 days cultivation under controlled conditions in a glasshouse (at 24° C./16° C., day/night; 14 hours light; 65% humidity), the plants are sprayed with an aqueous spray solution derived from the formulation of the technical active ingredient in acetone/water (50:50) solution containing 0.5% Tween 20 (polyoxyethelyene sorbitan monolaurate, CAS RN 9005-64-5). Compounds are applied at 1000 g/ha unless otherwise stated. The test plants are then grown in a glasshouse under controlled conditions in a glasshouse (at 24° C./16° C., day/night; 14 hours light; 65% humidity) and watered twice daily. After 13 days the test is evaluated for the percentage damage caused to the plant. The biological activities are shown in the following table on a five-point scale (5=81-100%; 4=61-80%; 3=41-60%; 2=21-40%; 1=10-20%; 0=0%;−=not tested).

Zea mays (ZEAMX) [7] = assay: Post-emergence herbicidal test; details: 1000 g/ha unless otherwise stated, evaluated after 13 days
Description: as §1

[8] = system: Ipomoea hederacea (IPOHE); assay: Post-emergence herbicidal test; details: 1000 g/ha unless otherwise stated, evaluated after 13 days
Description: as §1

[9] = system: Amaranthus retoflexus (AMARE); assay: Post-emergence herbicidal test; details: 1000 g/ha unless otherwise stated, evaluated after 13 days
Description: as §1

Setaria faberi (SETFA) [10] = assay: Post-emergence herbicidal test; details: 1000 g/ha unless otherwise stated, evaluated after 13 days
Description: as §1

[11] = system: Abutilon theophrasti (ABUTH); assay: Post-emergence herbicidal test; details: 1000 g/ha unless otherwise stated, evaluated after 13 days
Description: as §1

[12] = system: Amaranthus retoflexus (AMARE); assay: Pre-emergence herbicidal test; details: 1000 g/ha, evaluated after 13 days

Cc1ccc2c(c1S(C)(=O)=O)c(=O)c(C(=O)O)nn2-c1ccc(OC(F)(F)F)cc1 [Compound P6, 6-methyl-5-methylsulfonyl-4-oxo-1-[4-(trifluoromethoxy)phenyl]cinnoline-3-carboxylic acid]
percentage damage caused to the plant, five-point scale, IPOHE [1]: 1 (1=10-20%) | percentage damage caused to the plant, five-point scale, SETFA (Setaria faberi (SETFA) [2]): 4 (4=61-80%) | percentage damage caused to the plant, five-point scale, ZEAMX (Zea mays (ZEAMX) [3]): 1 (1=10-20%) | percentage damage caused to the plant, five-point scale, ABUTH [4]: 2 (2=21-40%) | percentage damage caused to the plant, five-point scale, ECHCG [5]: 3 (3=41-60%) | percentage damage caused to the plant, ECHCG (five-point scale) [6]: 4 (4=61-80%) | percentage damage caused to the plant, ZEAMX (five-point scale) (Zea mays (ZEAMX) [7]): 1 (1=10-20%) | percentage damage caused to the plant, IPOHE (five-point scale) [8]: 1 (1=10-20%) | percentage damage caused to the plant, AMARE (five-point scale) [9]: 2 (2=21-40%) | percentage damage caused to the plant, SETFA (five-point scale) (Setaria faberi (SETFA) [10]): 3 (3=41-60%) | percentage damage caused to the plant, ABUTH (five-point scale) [11]: 1 (1=10-20%) | percentage damage caused to the plant, five-point scale, AMARE [12]: 1 (1=10-20%)

Cc1cc(S(C)(=O)=O)c2c(=O)c(C(=O)O)nn(-c3ccc(OC(F)(F)F)cc3)c2c1 [Compound P7, 7-methyl-5-methylsulfonyl-4-oxo-1-[4-(trifluoromethoxy)phenyl]cinnoline-3-carboxylic acid]
percentage damage caused to the plant, five-point scale, IPOHE [1]: 1 (1=10-20%) | percentage damage caused to the plant, five-point scale, SETFA (Setaria faberi (SETFA) [2]): 4 (4=61-80%) | percentage damage caused to the plant, five-point scale, ZEAMX (Zea mays (ZEAMX) [3]): 1 (1=10-20%) | percentage damage caused to the plant, five-point scale, ABUTH [4]: 1 (1=10-20%) | percentage damage caused to the plant, five-point scale, ECHCG [5]: 4 (4=61-80%) | percentage damage caused to the plant, ECHCG (five-point scale) [6]: 4 (4=61-80%) | percentage damage caused to the plant, ZEAMX (five-point scale) (Zea mays (ZEAMX) [7]): 2 (2=21-40%) | percentage damage caused to the plant, IPOHE (five-point scale) [8]: 2 (2=21-40%) | percentage damage caused to the plant, AMARE (five-point scale) [9]: 1 (1=10-20%) | percentage damage caused to the plant, SETFA (five-point scale) (Setaria faberi (SETFA) [10]): 4 (4=61-80%) | percentage damage caused to the plant, ABUTH (five-point scale) [11]: 1 (1=10-20%) | percentage damage caused to the plant, five-point scale, AMARE [12]: 1 (1=10-20%)

CCOC(=O)c1nn(-c2ccc(OC(F)(F)F)cc2)c2ccc(C)c(S(C)(=O)=O)c2c1=O [Compound P8, ethyl 6-methyl-5-methylsulfonyl-4-oxo-1-[4-(trifluoromethoxy)phenyl]cinnoline-3-carboxylic acid]
percentage damage caused to the plant, five-point scale, IPOHE [1]: 1 (1=10-20%) | percentage damage caused to the plant, five-point scale, SETFA (Setaria faberi (SETFA) [2]): 4 (4=61-80%) | percentage damage caused to the plant, five-point scale, ZEAMX (Zea mays (ZEAMX) [3]): 1 (1=10-20%) | percentage damage caused to the plant, five-point scale, ABUTH [4]: 1 (1=10-20%) | percentage damage caused to the plant, five-point scale, ECHCG [5]: 3 (3=41-60%) | percentage damage caused to the plant, ECHCG (five-point scale) [6]: 4 (4=61-80%) | percentage damage caused to the plant, ZEAMX (five-point scale) (Zea mays (ZEAMX) [7]): 1 (1=10-20%) | percentage damage caused to the plant, IPOHE (five-point scale) [8]: 1 (1=10-20%) | percentage damage caused to the plant, AMARE (five-point scale) [9]: 1 (1=10-20%) | percentage damage caused to the plant, SETFA (five-point scale) (Setaria faberi (SETFA) [10]): 4 (4=61-80%) | percentage damage caused to the plant, ABUTH (five-point scale) [11]: 1 (1=10-20%) | percentage damage caused to the plant, five-point scale, AMARE [12]: 1 (1=10-20%)

CCOC(=O)c1nn(-c2ccc(OC(F)(F)F)cc2)c2cc(C)cc(S(C)(=O)=O)c2c1=O [Compound P9, ethyl 7-methyl-5-methylsulfonyl-4-oxo-1-[4-(trifluoromethoxy)phenyl]cinnoline-3-carboxylate]
percentage damage caused to the plant, five-point scale, IPOHE [1]: 1 (1=10-20%) | percentage damage caused to the plant, five-point scale, SETFA (Setaria faberi (SETFA) [2]): 4 (4=61-80%) | percentage damage caused to the plant, five-point scale, ZEAMX (Zea mays (ZEAMX) [3]): 1 (1=10-20%) | percentage damage caused to the plant, five-point scale, ABUTH [4]: 1 (1=10-20%) | percentage damage caused to the plant, five-point scale, ECHCG [5]: 4 (4=61-80%) | percentage damage caused to the plant, ECHCG (five-point scale) [6]: 4 (4=61-80%) | percentage damage caused to the plant, ZEAMX (five-point scale) (Zea mays (ZEAMX) [7]): 1 (1=10-20%) | percentage damage caused to the plant, IPOHE (five-point scale) [8]: 1 (1=10-20%) | percentage damage caused to the plant, AMARE (five-point scale) [9]: 1 (1=10-20%) | percentage damage caused to the plant, SETFA (five-point scale) (Setaria faberi (SETFA) [10]): 3 (3=41-60%) | percentage damage caused to the plant, ABUTH (five-point scale) [11]: 1 (1=10-20%) | percentage damage caused to the plant, five-point scale, AMARE [12]: 1 (1=10-20%)

CCOC(=O)c1nn(-c2ccc(OC(F)(F)F)cc2)c2ccc(Br)c(S(C)(=O)=O)c2c1=O [Compound P10, ethyl 6-bromo-5-methysulfonyl-4-oxo-1-[4-(trifluoromethoxy)phenyl]cinnoline-3-carboxylate]
percentage damage caused to the plant, five-point scale, IPOHE [1]: 0 (0=0%) | percentage damage caused to the plant, five-point scale, SETFA (Setaria faberi (SETFA) [2]): 1 (1=10-20%) | percentage damage caused to the plant, five-point scale, ZEAMX (Zea mays (ZEAMX) [3]): 0 (0=0%) | percentage damage caused to the plant, five-point scale, ABUTH [4]: 1 (1=10-20%) | percentage damage caused to the plant, five-point scale, ECHCG [5]: 0 (0=0%) | percentage damage caused to the plant, ECHCG (five-point scale) [6]: 1 (1=10-20%) | percentage damage caused to the plant, ZEAMX (five-point scale) (Zea mays (ZEAMX) [7]): 1 (1=10-20%) | percentage damage caused to the plant, IPOHE (five-point scale) [8]: 0 (0=0%) | percentage damage caused to the plant, AMARE (five-point scale) [9]: 1 (1=10-20%) | percentage damage caused to the plant, SETFA (five-point scale) (Setaria faberi (SETFA) [10]): 1 (1=10-20%) | percentage damage caused to the plant, ABUTH (five-point scale) [11]: 1 (1=10-20%) | percentage damage caused to the plant, five-point scale, AMARE [12]: 1 (1=10-20%)

CCOC(=O)c1nn(-c2ccc(OC(F)(F)F)cc2)c2cc(Br)cc(S(C)(=O)=O)c2c1=O [Compound P11, ethyl 7-bromo-5-methylsulfonyl-4-oxo-1-[4-(trifluoromethoxy)phenyl]cinnoline-3-carboxylate]
percentage damage caused to the plant, five-point scale, IPOHE [1]: 0 (0=0%) | percentage damage caused to the plant, five-point scale, SETFA (Setaria faberi (SETFA) [2]): 0 (0=0%) | percentage damage caused to the plant, five-point scale, ZEAMX (Zea mays (ZEAMX) [3]): 0 (0=0%) | percentage damage caused to the plant, five-point scale, ABUTH [4]: 0 (0=0%) | percentage damage caused to the plant, five-point scale, ECHCG [5]: 0 (0=0%) | percentage damage caused to the plant, ECHCG (five-point scale) [6]: 0 (0=0%) | percentage damage caused to the plant, ZEAMX (five-point scale) (Zea mays (ZEAMX) [7]): 1 (1=10-20%) | percentage damage caused to the plant, IPOHE (five-point scale) [8]: 0 (0=0%) | percentage damage caused to the plant, AMARE (five-point scale) [9]: 0 (0=0%) | percentage damage caused to the plant, SETFA (five-point scale) (Setaria faberi (SETFA) [10]): 1 (1=10-20%) | percentage damage caused to the plant, ABUTH (five-point scale) [11]: 1 (1=10-20%) | percentage damage caused to the plant, five-point scale, AMARE [12]: 0 (0=0%)

CCOC(=O)c1nn(-c2ccc(OC(F)(F)F)cc2)c2ccc(Br)c(SC)c2c1=O [Compound P53, ethyl 6-bromo-5-methylsulfanyl-4-oxo-1-[4-(trifluoromethoxy)phenyl]cinnoline-3-carboxylate]
percentage damage caused to the plant, five-point scale, IPOHE [1]: 0 (0=0%) | percentage damage caused to the plant, five-point scale, SETFA (Setaria faberi (SETFA) [2]): 1 (1=10-20%) | percentage damage caused to the plant, five-point scale, ABUTH [4]: 1 (1=10-20%) | percentage damage caused to the plant, five-point scale, ECHCG [5]: 1 (1=10-20%) | percentage damage caused to the plant, ECHCG (five-point scale) [6]: 1 (1=10-20%) | percentage damage caused to the plant, ZEAMX (five-point scale) (Zea mays (ZEAMX) [7]): 0 (0=0%) | percentage damage caused to the plant, IPOHE (five-point scale) [8]: 1 (1=10-20%) | percentage damage caused to the plant, AMARE (five-point scale) [9]: 0 (0=0%) | percentage damage caused to the plant, SETFA (five-point scale) (Setaria faberi (SETFA) [10]): 0 (0=0%) | percentage damage caused to the plant, ABUTH (five-point scale) [11]: 1 (1=10-20%) | percentage damage caused to the plant, five-point scale, AMARE [12]: 1 (1=10-20%)
